# Measured values from publication PMC8694022, “Molecular Docking-Based Screening for Novel Inhibitors of the Human Immunodeficiency Virus Type 1 Protease that Effectively Reduce the Viral Replication in Human Cells” (Journal of AIDS & clinical research, 2021).
# Legend:
# TZM-bl cells = assay: Cell viability assay (CellTiter 96 AQueous) in TZM-bl cells; type: cell-based, human
# Description: (§1) Viability in presence of compounds was measured at day 4 or 7, TZM-bl cells or PBMCs, using CellTiter 96 AQueous one solution cell proliferation assay (Promega) following manufacturer instructions. Toxicity of compounds was defined as a concentration that produced more than 10% decline in viability of TZM-bl cells or PBMCs were viable at days 4 or 7 of exposure, respectively, compared with DMSO-treated controls.
# HIV-1AD [1] = assay: Anti-viral activity in TZM-bl cells, PI-sensitive HIV-1AD (luciferase); type: cell-based
# Description: (§2) Anti-viral activity was evaluated ex vivo by adding the highest non-toxic concentration of compound or 25uM RTV (Sigma) solubilized in DMSO on the day of infection by PI-sensitive (HIV-1AD) or multi (RTV and IDV) PI-resistant (HIV-1AD02) HIV-1 variants at 25 or 45 TCID50 per ml for PBMCs or TZM-bl cells, respectively. Replication was determined on post-infection day 7 in PBMC by measuring supernatant p24 antigen levels (Perkin-Elmer), or day 4 in TZM-bl cells by measuring luciferase activity using the luciferase assay system (Promega, Madison, WI) and the microplate luminometer Monolight 3096 (BD Biosciences, San Jose, CA). Inhibitory concentration (IC)50 was calculated based on anti-viral activity in TZM-bl cells with a nonlinear regression analysis (GraphPad Prism 6 Software). Reduction of viral replication by more than 50% was considered successful anti-viral activity. Combinatorial effect of drug with RTV was tested at IC50, and higher or lower concentrations than IC50.
# HIV-1 PR subtype B = target: T1, HIV-1 PR subtype B (Human immunodeficiency virus type 1 group M subtype B, UniProt P04585); assay: In vitro PR inhibition assay, subtype B; type: biochemical; design: key: [+] or [−] indicating PR inhibition or no inhibition, respectively; [+] or [−] indicating PR inhibition or no inhibition, respectively; conditions: compound at 80 μM, 37 °C
# T1 construct: HIV type 1 (HIV-1) PR is a homodimeric enzyme of 99 amino acids; made in house
# Description: (§3) The compounds were obtained from the NCI/DTP and solubilized in DMSO (Sigma) for use in HIV-1 PR inhibition assays. Cloning, expression, and purification procedures of HIV-1 PRs obtained from […] samples have been previously described elsewhere. For detailed information of mutations harbored in the multi PI-resistant HIV-1PR as compared to the PI-sensitive PR, full amino acid sequences is given in supplementary materials (Figure S1). HIV-1 PRs subtype variants were assayed kinetically at 80 μM for inhibitory activity at 37 °C using selected compounds as previously described.
# (§4) We explored the hypothesis that compounds selected in silico for binding to the hinge region of PR are effective as inhibitors of HIV-1 replication, including multi-PI resistant viruses, in human cells. Our of 139,739 compounds, the top 40 highest-scoring compounds targeting the structural pockets in the hinge of the PR (Figure S1) were obtained from the NCI/DTP for use in HIV PR inhibition assays. Compounds were initially tested in vitro at 80 μM to screen for inhibitory activity against PR subtypes A, B or C. Compounds inhibiting at least one subtype of the PR were considered as candidate compounds for further experiments.
# HIV-1 PR subtype C = target: T2, HIV-1 PR subtype C (Human immunodeficiency virus type 1 group M subtype C, UniProt Q75002); assay: In vitro PR inhibition assay, subtype C; type: biochemical; design: key: [+] or [−] indicating PR inhibition or no inhibition, respectively; [+] or [−] indicating PR inhibition or no inhibition, respectively; conditions: compound at 80 μM, 37 °C
# T2 construct: HIV type 1 (HIV-1) PR is a homodimeric enzyme of 99 amino acids; made in house
# T2 sequence (Q75002 493-591): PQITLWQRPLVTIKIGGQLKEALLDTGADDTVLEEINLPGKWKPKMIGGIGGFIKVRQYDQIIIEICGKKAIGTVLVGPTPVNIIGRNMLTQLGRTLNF
# Description: as §3, §4
# PBMCs = assay: Cell viability assay (CellTiter 96 AQueous) in PBMCs; type: cell-based, human; conditions: 200 μM, day 7
# Description: as §1
# HIV-1AD02 [2] = assay: Anti-viral activity in TZM-bl cells, multi PI-resistant HIV-1AD02 (luciferase); type: cell-based
# Description: as §2
# HIV-1AD [3] = assay: Anti-viral activity alone or combined with 25 µM RTV, relative to 25 µM RTV, HIV-1AD; type: cell-based
# Description: as §2
# (§5) Combinatorial effect of drug was tested combining 25 μM RTV and higher or lower concentrations than IC50 of lead compounds. Combinations of compounds 18, 22, 27, 32 or 35 with 25 μM RTV were non-toxic in TZM-bl cells. Combination with RTV increased antiviral activity of all compounds against both PI-sensitive and PI-resistant HIV-1 variants (Figure 2).
# (§6) Table S2. Fold change of compounds (18, 22, 27, 32 or 35) alone or in combination with 25 µM RTV compared to 25 µM
# (§7) RTV. P values are reported in parenthesis with Bonferroni correction with significance p<0.0055; fold change >1 indicates […]
# (§8) are highlighted in yellow; (-) not performed. (1) Anti-viral activity against HIV-1; (2) Compounds identification number.
# (§9) Fold change of compounds compared to 25 µM RTV as reference […]
# HIV-1 PR subtype A = target: T3, HIV-1 PR subtype A (Human immunodeficiency virus type 1 group M subtype A, UniProt P24740); assay: In vitro PR inhibition assay, subtype A; type: biochemical; design: key: [+] or [−] indicating PR inhibition or no inhibition, respectively; [+] or [−] indicating PR inhibition or no inhibition, respectively; conditions: compound at 80 μM, 37 °C
# T3 construct: HIV type 1 (HIV-1) PR is a homodimeric enzyme of 99 amino acids; made in house
# T3 sequence (P24740 482-580): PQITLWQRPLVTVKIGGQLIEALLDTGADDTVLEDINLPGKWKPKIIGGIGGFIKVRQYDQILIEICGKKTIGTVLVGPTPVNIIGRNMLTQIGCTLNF
# Description: as §3, §4
# HIV-1AD02 [4] = assay: Anti-viral activity alone or combined with 25 µM RTV, relative to 25 µM RTV, HIV-1AD02; type: cell-based
# Description: as §2, §5, §6, §7, §8, §9
# [5] = highest non-toxic concentration, day 4 luciferase
structure (smiles),measurement,setting,value
Nc1nc(N)c(N=Nc2ccc(C(=O)O)c(O)c2)c(N)n1 [Compound 18],toxicity (more than 10% decline in viability),"TZM-bl cells; 200 μM, day 4",non-toxic
same,toxicity of combination with 25 μM RTV,TZM-bl cells; compound combined with 25 μM RTV,non-toxic
same,IC50,HIV-1AD [1]; PI-sensitive variant,62.7 µM
same,reduction of replication of HIV-1AD,HIV-1AD [1]; [5],more than 80%
same,Inhibition of PR subtype B,HIV-1 PR subtype B,+
same,Inhibition of PR subtype C,HIV-1 PR subtype C,+
same,reduction of cell viability,PBMCs,28%
same,reduction of replication of HIV-1AD02,HIV-1AD02 [2]; [5],more than 80%
same,IC50,HIV-1AD02 [2]; multi PI-resistant variant,68.5 µM
same,Fold change compared to 25 µM RTV,HIV-1AD [3]; compound 25 µM with 25 µM RTV,0.54 fold
same,Fold change compared to 25 µM RTV,HIV-1AD [3]; compound 50 µM with 25 µM RTV,0.32 fold
same,Fold change compared to 25 µM RTV,HIV-1AD [3]; compound 100 µM with 25 µM RTV,0.40 fold
same,Fold change compared to 25 µM RTV,"HIV-1AD [3]; compound alone, 25 µM",1.12 fold
same,Fold change compared to 25 µM RTV,"HIV-1AD [3]; compound alone, 50 µM",1.13 fold
same,Fold change compared to 25 µM RTV,"HIV-1AD [3]; compound alone, 100 uM",0.87 fold
same,Inhibition of PR subtype A,HIV-1 PR subtype A,+
same,Fold change compared to 25 µM RTV,"HIV-1AD02 [4]; HIV-1AD02, compound 25 µM with 25 µM RTV",0.75 fold
same,Fold change compared to 25 µM RTV,"HIV-1AD02 [4]; HIV-1AD02, compound 50 µM with 25 µM RTV",0.60 fold
same,Fold change compared to 25 µM RTV,"HIV-1AD02 [4]; HIV-1AD02, compound 100 µM with 25 µM RTV",0.53 fold
same,Fold change compared to 25 µM RTV,"HIV-1AD02 [4]; HIV-1AD02, compound alone, 25 µM",3.42 fold
same,Fold change compared to 25 µM RTV,"HIV-1AD02 [4]; HIV-1AD02, compound alone, 50 µM",3.24 fold
same,Fold change compared to 25 µM RTV,"HIV-1AD02 [4]; HIV-1AD02, compound alone, 100 uM",2.41 fold
